Measurements from patent US11298358B2, “Combination therapy using ascochlorin derivative” (priority 2017, dated 2022).
Where two headings read alike, the source gives them in different places. Values belong to the molecule of their own block, whether it stands above or below them.

Experiments:
[1] = Solubility in pH4.0 and pH7.4 phosphate buffer solution; settings: 2 hr incubation, 25° C.
Protocol: 1) Preparation of Stock Solutions
The stock solutions of test compounds and positive control compound were prepared in DMSO at the concentration of 30 mM. Diclofenac was used as positive control in the assay.
2) Procedures for Solubility Determination
The stock solution of each compound (10 μL) was placed in order into their proper 96-well rack, followed by adding 990 μL of PBS at pH 4.0 and pH 7.4 into each vial of the cap-less Solubility Sample plate. This study was performed in duplicate. One stir stick was added to each vial and then vials were sealed using a molded PTDE/SIL 96-Well Plate Cover. The Solubility Sample plate was transferred to the Thermomixer Comfort plate shaker and incubated at 25° C. for 2 hours with shaking at 1,100 rpm. After 2 hours incubation, stir sticks were removed using a big magnet and all samples from the Solubility Sample plate were transferred into the filter plate. All the samples were filtered by using the vacuum manifold. The filtered samples were diluted with methanol.
3) Samples Analyzed by LC-MS/MS:
The LC system comprised a Shimadzu liquid chromatograph separation system equipped with degasser DGU-20A3, solvent delivery unit LC-20AD, system controller CBM-20A, column oven CTO-10ASVP and CTC Analytics HTC PAL System. Mass spectrometric analysis was performed using an API 4000 instrument from AB Inc (Canada) with an ESI interface.

[2] = Stability against mouse liver microsomes; assay type: in vitro ADME; settings: 2 μM compound
Protocol: (§1) Determination of Stability Against Mouse and Human Microsomes
(§2) Pooled human liver microsomes (Cat. 452161; Lot. 23418) were purchased from Corning and pooled male mouse liver microsomes (Cat. M1000; Lot. 1210302) were purchased from Xenotech. Microsomes were stored at −80° C. prior to use. 40 μL of ultra-pure H2O was used instead of NADPH solution in the negative control. The negative control was used to exclude the misleading factor that was resulted from instability of chemical itself. Samples with NADPH were prepared in duplicate. Negative controls were prepared in singlet.
(§3) The reaction was started with the addition of 4 μL of 200 μM compound solution to each master solution to get the final concentration of 2 μM. Verapamil was used as positive control in the assay. Aliquots of 50 μL were taken from the reaction solution at 0, 15, 30, 45 and 60 min. The reaction was stopped by addition of 4 volumes of cold acetonitrile with IS (200 nM imipramine, […] labetalol and 2 μM ketoprofen). Samples were centrifuged at 3,220 g for 40 minutes. Aliquot of 90 μL of the supernatant was mixed with 90 μL of ultra-pure H2O and then was used for LC-MS/MS analysis. Results are shown in Table 3 by indicating remaining % of the test compound after 60 minutes incubation with liver microsomes from human and mouse in the presence of NADPH.

HT29 = assay: Anti-proliferative activity, CellTiterGlo assay, HT29; assay type: cell-based; settings: Homo sapiens, HT-29; HT29, 96 hrs incubation; read-out: Antiproliferative activities (IC50) HT29
Protocol: (§4) The anti-proliferative activities of the compounds against 6 human cancer cell lines were determined by CellTiterGlo assay kit. All cells were obtained from ATCC and cultured as recommended by the vendor. Cells were assayed in exponential growth phase. Sample solution was prepared by 3-fold serial dilution from 30 mM stock for 10 doses in DMSO. Antiproliferative activities were measured by CellTiterGlo assay kit according to the protocol after cells were incubated for 96 hrs in a 37° C., 5% CO2 incubator.
(§5) On the 4th day of incubation, i) 15 μl reagent (CelltiterGlo assay kit) was added per well and plate was shaken (avoiding light) for 2 mins on a plate shaker, ii) the plate was kept (avoiding light) in room temperature for 30 min, and iii) the luminescence value was recorded by Multiplate reader.

BxPC-3 = assay: Anti-proliferative activity, CellTiterGlo assay, BxPC-3; assay type: cell-based; settings: Homo sapiens; BxPC-3, 96 hrs incubation; read-out: Antiproliferative activities (IC50) BxPC-3
Protocol: as §4, §5

[3] = Stability against human liver microsomes; assay type: in vitro ADME; settings: 2 μM compound
Protocol: as §1, §2, §3

MDA-MB-231 = assay: Anti-proliferative activity, CellTiterGlo assay, MDA-MB-231; assay type: cell-based; settings: Homo sapiens; MDA-MB-231, 96 hrs incubation; read-out: Antiproliferative activities (IC50) MDA-MB-231
Protocol: as §4, §5

U87-MG = assay: Anti-proliferative activity, CellTiterGlo assay, U87-MG; assay type: cell-based; settings: Homo sapiens, U-87 MG, 96 hrs incubation, read-out: Antiproliferative activities (IC50) U87-MG
Protocol: as §4, §5

A549 = assay: Anti-proliferative activity, CellTiterGlo assay, A549; assay type: cell-based; settings: Homo sapiens; A549, 96 hrs incubation; read-out: Antiproliferative activities (IC50) A549
Protocol: as §4, §5

LNCaP = assay: Anti-proliferative activity, CellTiterGlo assay, LNCaP; assay type: cell-based; settings: Homo sapiens, 96 hrs incubation, read-out: Antiproliferative activities (IC50) LNCaP
Protocol: as §4, §5

AMPK in HepG2 cell = settings: HepG2 cells, reported in the literature; cited from earlier work
CT26 tumor cells = assay: Efficacy study in CT26 syngeneic mouse model; assay type: in vivo; settings: for antitumor activity (in words): Cmpd 19 alone
Protocol: An efficacy study was conducted by using Compound 19 (Cmpd 19) with CT26 syngeneic mouse model. Female BALB/c mice (Vital River, Beijing, China) of 7 to 9 weeks old with body weight between 19 and 21 g were used. Each mouse was inoculated subcutaneously on the right flank with CT26 tumor cells (2×10^5) in 0.1 mL of PBS for tumor development. On Day 5 after tumor inoculation, mice were randomized into groups. Each group consisted of 10 tumor-bearing mice. The treatment with Cmpd 19 was then started on Day 5.
As an anti PD-1 antibody, anti-mouse PD-1 antibody (CD279, Clone: RMP1-14, Catalog #: BE0146 from Bio X Cell) was used.
The measurement of tumor size was conducted three times weekly with calipers, and the tumor volume (mm^3) is estimated using the formula: TV=(a×b^2)/2, where “a” and “b” are long and short diameters of a tumor, respectively. The TVs were used for calculation of the tumor growth inhibition (TGI, an indicator of antitumor effectiveness), using formula: TGI=(1−T/C)×100%, where “T” and “C” are the mean relative volumes (% tumor growth) of the tumors in the treated and the control groups. Data were analyzed using GraphPad Software and represented as the mean value±SD in FIG. 3 in which error bars are shown. The p values were assessed using One-Way ANOVA Dunnett test and vehicle control (G1) as control group. A case with p<0.05 was considered as statistically significant.

[4] = G3: Cmpd 19 50 mg/kg p.o. once a day x 18
[5] = G4: Cmpd 19 25 mg/kg p.o. once a day x 18

SMILES: COc1c(Cl)c(C)c(C=NCC(N)=O)c(O)c1C/C=C(C)/C=C/[C@@]1(C)[C@H](C)CCC(=O)[C@@H]1C [compound #13 in WO2004/074236]
- Solubility pH 4.0 PBS ([1]; pH 4.0 phosphate buffer solution): converted to MAC
- Solubility pH 7.4 PBS ([1]; pH 7.4 phosphate buffer solution): 0.02 μM

SMILES: COc1c(Cl)c(C)c(C=O)c(O)c1C/C=C(C)/C=C/[C@@]1(C)[C@H](C)CCC(=O)[C@@H]1C [MAC, 4-O-Methy-ascochlorin]
- Solubility pH 4.0 PBS (pH 4): <0.08 μM
- Solubility pH 7.4 PBS (pH 7.4): 0.07 μM
- AMPK activation in HepG2 cell (AMPK in HepG2 cell): ability for activating AMPK

SMILES: CO/N=C/c1c(C)c(Cl)c(OC)c(C/C=C(C)/C=C/[C@@]2(C)[C@H](C)CC/C(=N\OCC(=O)O)[C@@H]2C)c1O [Compound 19, 2-([[(1E,2R,3R,4R)-3-[(1E,3E)-5-[3-chloro-6-hydroxy-2-methoxy-5-[(1E)-(methoxyimino)methyl]-4-methylphenyl]-3-methylpenta-1,3-dien-1-yl]-2,3,4-trimethylcyclohexylidene]amino]oxy)acetic acid]
- antitumor activity (in words) (CT26 tumor cells; 25 mg/kg p.o.): minor or no antitumor activity
- antitumor activity (in words) (CT26 tumor cells; 50 mg/kg p.o.): minor or no antitumor activity
- TGI (%) (CT26 tumor cells; [4]): −1.4%
- Tumor volume (mm^3, on Day 23) (CT26 tumor cells; [4]): 6,483 ± 310 mm^3
- TGI (%) (CT26 tumor cells; [5]): 6.5%
- Tumor volume (mm^3, on Day 23) (CT26 tumor cells; [5]): 6,056 ± 689 mm^3

SMILES: CN(C)C(=N)N=C(N)N [Metformin]
- AMPK activation in HepG2 cell (AMPK in HepG2 cell): only at surprisingly high concentration of mM level

Second part, the molecule after the results:

- Liver microsome stability remaining % after 60 min incubation with NADPH, mouse LM [2]: 71%
- IC50 (HT29): 10 µM
- IC50 (BxPC-3): 12.8 µM
- Liver microsome stability remaining % after 60 min incubation with NADPH, human LM [3]: 71%
- IC50 (MDA-MB-231): 6.8 µM
- IC50 (U87-MG): 13.1 µM
- IC50 (A549): 6.5 µM
- IC50 (LNCaP): 7.2 µM
SMILES: COc1c(Cl)c(C)c(/C=N/O)c(O)c1C/C=C(C)/C=C/[C@@]1(C)[C@H](C)CC[C@](C)(O)[C@@H]1C [Compound 7, 4-chloro-2-[(2E,4E)-5-[(1R,2R,3S,6R)-3-hydroxy-1,2,3,6-tetramethylcyclohexyl]-3-methylpenta-2,4-dien-1-yl]-6-[(1E)-(hydroxyimino)methyl]-3-methoxy-5-methylphenol]

- Liver microsome stability remaining % after 60 min incubation with NADPH, mouse LM [2]: 88%
- Liver microsome stability remaining % after 60 min incubation with NADPH, human LM [3]: 99%
SMILES: CO/N=C/c1c(C)c(Cl)c(OC)c(C/C=C(C)/C=C/[C@@]2(C)[C@H](C)CC[C@](C)(O)[C@@H]2C)c1O [Compound 14, 4-chloro-2-[(2E,4E)-5-[(1R,2R,3S,6R)-3-hydroxy-1,2,3,6-tetramethylcyclohexyl]-3-methylpenta-2,4-dien-1-yl]-3-methoxy-6-[(1E)-(methoxyimino)methyl]-5-methylphenol]
